In patent publication US6420348B1, “Pectic polysaccharides purified from Angelica gigas nakai and purification method and use as immunostimulating agent thereof” (Korea Institute of Science and Technology, priority 1997, dated 2002):

Assays:
[1] = tested on: B16F10 melanoma; test: host resistance model to syngeneic tumors; format: in vivo, BDF1 mice; conditions: for Viability: relative to non-treated mice; for Survival Animals (10 in total): survived 60 days
Description: The host resistance model to syngeneic tumors was prepared by the intraperitoneal transplantation of B16F10 melanoma to BDF1 mice. After transplantation, angelan was administered at a dose of 100 mg/kg/day while adriamicin was administered at a dose of 0.1 to 0.3 mg/kg. The survival rates of the treated mice was based on the viability of non-treated mice, and the number of the animals which survived for 60 days after the implantation, was counted.

[2] = tested on: B16F10 cancer cells; test: direct cytotoxicity on cancer cells; format: cell-based; conditions: for survival number of treated cells as ratio to non-treated cells: 2 days
Description: Whether the anticancer effect of angelan came from specific mediation by cytotoxic T cells or from nonspecific mediation by macrophages and natural killer cells, was proven as follows. B16F10 cancer cells were treated with angelan and adriamicin at a dose of 0.3 to 30 μg/ml. After incubation for 2 days, the number of the survived cells was countered. The survival number of the treated cells was expressed as a ratio compared with the number of the non-treated cells.

[3] = tested on: B cell-depleted cell group (T cells); test: mitogenicity comparison, 3H-thymidine incorporation; format: cell-based, mice; conditions: 5 μg/ml
From the text: (§1) In this example, the action mode of angelan was compared with those of other lymphocyte mitogens in three different lymphocyte groups. Lipopolysaccharide (LPS) was employed to induce the proliferation of B cell while phytohemagglutinin (PHA) and concanavalin A (Con A) were used as T cell mitogens. As a comitogen, that is, in order to induce both T-cells and B-cells to proliferate, pokeweed mitogen (PWM) was used.
(§2) Angelan was given to three different cell groups: total cell group including T- and B-cells, T cell-depleted cell group, and B cell-depleted cell group. Each cell groups were treated with angelan or one of LPS, PWM, Con A and PHA. After incubation, lymphocyte proliferation was measured by the incorporation of 3H-thymidine into the cellular DNA.

[4] = tested on: T cell-depleted cell group (B cells); test: as above; format: cell-based, mice; conditions: for Proliferation B cells: 5 μg/ml; for mitogenicity (in words): B cell-enriched group
From the text: as §1, §2

[5] = tested on: total cell group including T- and B-cells; test: as above; format: cell-based, mice; conditions: 5 μg/ml
From the text: as §1, §2

## COc1cccc2c1C(=O)c1c(O)c3c(c(O)c1C2=O)C[C@@](O)(C(=O)CO)C[C@@H]3O[C@H]1C[C@H](N)[C@H](O)[C@H](C)O1 [Adriamicin]
[1]; adriamicin 0.1 mg/kg
  Viability: 195%
  Survival Animals (10 in total): 0
[1]; adriamicin 0.3 mg/kg
  Viability: >240%
  Survival Animals (10 in total): 2
[2]
  cytotoxicity on cancer cells (in words): showed cytotoxicity on cancer cells
[2]; 0.3 μg/ml
  survival number of treated cells as ratio to non-treated cells: 56
[2]; 1 μg/ml
  survival number of treated cells as ratio to non-treated cells: 29
[2]; 3 μg/ml
  survival number of treated cells as ratio to non-treated cells: 9
[2]; 10 μg/ml
  survival number of treated cells as ratio to non-treated cells: 0
[2]; 30 μg/ml
  survival number of treated cells as ratio to non-treated cells: 0

## Lipopolysaccharide [LPS]
[3]
  Proliferation T cells: 869 cpm/200,000 cells
[4]
  Proliferation B cells: 11550 cpm/200,000 cells
  mitogenicity (in words): had an effect
[5]
  Proliferation B/T cells: 11665 cpm/200,000 cells

## concanavalin A [Con A]
[3]
  Proliferation T cells: 3929 cpm/200,000 cells
[4]
  Proliferation B cells: 6566 cpm/200,000 cells
[5]
  Proliferation B/T cells: 6014 cpm/200,000 cells

## phytohemagglutinin [PHA]
[3]
  Proliferation T cells: 3127 cpm/200,000 cells
[4]
  Proliferation B cells: 446 cpm/200,000 cells
[5]
  Proliferation B/T cells: 1049 cpm/200,000 cells

## pokeweed mitogen [PWM]
[3]
  Proliferation T cells: 12171 cpm/200,000 cells
[4]
  Proliferation B cells: 358 cpm/200,000 cells
  mitogenicity (in words): had an effect
[5]
  Proliferation B/T cells: 10212 cpm/200,000 cells
